The target in the assay is T1, human plasma protein factor Xa (Homo sapiens, UniProt P00742).
T1 construct: measure proteolytic activity of the enzyme (factor Xa); purchased Haematologic Technologies (Essex Junction, Vt.); host or cells: human plasma
T1 sequence (P00742 235-488 limits assumed): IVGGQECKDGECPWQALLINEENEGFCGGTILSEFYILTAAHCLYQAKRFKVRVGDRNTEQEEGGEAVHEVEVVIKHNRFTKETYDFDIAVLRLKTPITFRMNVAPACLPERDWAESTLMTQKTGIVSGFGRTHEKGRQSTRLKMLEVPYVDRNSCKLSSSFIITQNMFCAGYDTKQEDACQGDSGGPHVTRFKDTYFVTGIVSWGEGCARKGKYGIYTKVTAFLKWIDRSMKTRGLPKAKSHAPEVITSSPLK
T1 sequence (P00742 41-179 partner limits assumed): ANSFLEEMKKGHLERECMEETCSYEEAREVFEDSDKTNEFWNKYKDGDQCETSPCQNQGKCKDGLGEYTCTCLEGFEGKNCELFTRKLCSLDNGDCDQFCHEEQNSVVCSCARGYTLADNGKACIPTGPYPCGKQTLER
The experiment in a line: Factor Xa IC50 determination: cleavage of paranitroanilide substrate S-2765 in 96-well plates. The following applies: fXa 1 nM, S-2765 100 μM, Tris buffered saline pH 7.4, room temperature. It counts as biochemical. Summed up:
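Human plasma factor Xa (1 nM) preincubated 5 min at room temperature with inhibitor (0.01 nM–10 μM final) in Tris-buffered saline pH 7.4 with 5 mM CaCl2, 0.1% BSA, 5% DMSO. S-2765 at 100 μM final; hydrolysis at 405 nm over 2 min. IC50 from 4-parameter fit of initial velocities.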
The IC50 is the point on the concentration scale where inhibition reaches its midpoint. `CN(C)C(=N)c1ccc(C2=NOC(CNC(=O)c3ccc(Cl)s3)C2)c(N2CCOCC2)c1` (centres unmarked) [Example 82, 5-Chloro-thiophene-2-carboxylic acid {3-[4-(N,N-dimethyl-carbamimidoyl)-2-morpholin-4-yl-phenyl]-4,5-dihydro-isoxazol-5-ylmethyl}-amide] gave an IC50 of at most 100 nM.
`CN1CCN=C1c1ccc(C2=NOC(CNC(=O)c3ccc(Cl)s3)C2)c(N2CCOCC2)c1` (centres unmarked) [Example 83, 5-Chloro-thiophene-2-carboxylic acid {3-[4-(1-methyl-4,5-dihydro-1H-imidazol-2-yl)-2-morpholin-4-yl-phenyl]-4,5-dihydro-isoxazol-5-ylmethyl}-amide] returned an IC50 of 100 to 500 nM.
Compound `N=C(c1ccc(C2=NOC(CNC(=O)c3ccc(Cl)s3)C2)c(N2CCOCC2)c1)N1CCCC1` (centres unmarked) [Example 84, 5-Chloro-thiophene-2-carboxylic acid {3-[4-(imino-pyrrolidin-1-yl-methyl)-2-morpholin-4-yl-phenyl]-4,5-dihydro-isoxazol-5-ylmethyl}-amide] displayed an IC50 of 100 to 500 nM.
In turn, `N=C(c1ccc(C2=NOC(CNC(=O)c3ccc(Cl)s3)C2)c(N2CCOCC2)c1)N1CCCCC1` (centres unmarked) [Example 85, 5-Chloro-thiophene-2-carboxylic acid {3-[4-(imino-piperidin-1-yl-methyl)-2-morpholin-4-yl-phenyl]-4,5-dihydro-isoxazol-5-ylmethyl}-amide] yielded an IC50 of 100 to 500 nM.
In turn, `COCCN(C)c1cc(C(=N)N(C)C)ccc1C1=NOC(CNC(=O)c2ccc(Cl)s2)C1` (centres unmarked) [Example 86, 5-Chloro-thiophene-2-carboxylic acid (3-{4-(N,N-dimethyl-carbamimidoyl)-2-[(2-methoxy-ethyl)-methyl-amino]-phenyl}-4,5-dihydro-isoxazol-5-ylmethyl)-amide] came in with an IC50 of at most 100 nM.
Compound `COCCN(C)c1cc(C2=NCCN2C)ccc1C1=NOC(CNC(=O)c2ccc(Cl)s2)C1` (centres unmarked) [Example 87] displayed a half-inhibitory concentration (IC50) of 100 to 500 nM.
To `COCCN(C)c1cc(C(=N)N2CCCC2)ccc1C1=NOC(CNC(=O)c2ccc(Cl)s2)C1` (centres unmarked) [Example 88, 5-Chloro-thiophene-2-carboxylic acid (3-{4-(imino-pyrrolidin-1-yl-methyl)-2-[(2-methoxy-ethyl)-methyl-amino]-phenyl}-4,5-dihydro-isoxazol-5-ylmethyl)-amide] belongs 100 to 500 nM; to `COCCN(C)c1cc(C(=N)N2CCCCC2)ccc1C1=NOC(CNC(=O)c2ccc(Cl)s2)C1` (centres unmarked) [Example 89, 5-Chloro-thiophene-2-carboxylic acid (3-{4-(imino-piperidin-1-yl-methyl)-2-[(2-methoxy-ethyl)-methyl-amino]-phenyl}-4,5-dihydro-isoxazol-5-ylmethyl)-amide], 100 to 500 nM; to `CN(C)C(=N)c1ccc(C2=NOC(CNC(=O)c3ccc(Cl)s3)C2)c(N2CCCCCC2)c1` (centres unmarked) [Example 90, 5-Chloro-thiophene-2-carboxylic acid {3-[2-azepan-1-yl-4-(N,N-dimethyl-carbamimidoyl)-phenyl]-4,5-dihydro-isoxazol-5-ylmethyl}-amide], 100 to 500 nM.
In the case of `CN1CCN=C1c1ccc(C2=NOC(CNC(=O)c3ccc(Cl)s3)C2)c(N2CCCCCC2)c1` (centres unmarked) [Example 91, 5-Chloro-thiophene-2-carboxylic acid {3-[2-azepan-1-yl-4-(1-methyl-4,5-dihydro-1H-imidazol-2-yl)-phenyl]-4,5-dihydro-isoxazol-5-ylmethyl}-amide], the IC50 is at most 100 nM.
Regarding `N=C(c1ccc(C2=NOC(CNC(=O)c3ccc(Cl)s3)C2)c(N2CCCCCC2)c1)N1CCCC1` (centres unmarked) [Example 92, 5-Chloro-thiophene-2-carboxylic acid {3-[2-azepan-1-yl-4-(imino-pyrrolidin-1-yl-methyl)-phenyl]-4,5-dihydro-isoxazol-5-ylmethyl}-amide], the half-inhibitory concentration (IC50) was at most 100 nM.
Then `N=C(c1ccc(C2=NOC(CNC(=O)c3ccc(Cl)s3)C2)c(N2CCCCCC2)c1)N1CCCCC1` (centres unmarked) [Example 93, 5-Chloro-thiophene-2-carboxylic acid {3-[2-azepan-1-yl-4-(imino-piperidin-1-yl-methyl)-phenyl]-4,5-dihydro-isoxazol-5-ylmethyl}-amide], with at most 100 nM.
To `CN(C)C(=N)c1ccc(-c2cc(CNC(=O)c3ccc(Cl)s3)on2)c(N(C)C)c1` [Example 94, 5-Chloro-thiophene-2-carboxylic acid {3-[2-dimethylamino-4-(N,N-dimethyl-carbamimidoyl)-phenyl]-isoxazol-5-ylmethyl}-amide] belongs at most 100 nM.
Then `CN1CCN=C1c1ccc(-c2cc(CNC(=O)c3ccc(Cl)s3)on2)c(N(C)C)c1` [Example 95, 5-Chloro-thiophene-2-carboxylic acid {3-[2-dimethylamino-4-(1-methyl-4,5-dihydro-1H-imidazol-2-yl)-phenyl]-isoxazol-5-ylmethyl}-amide], with at most 100 nM; and `CN(C)c1cc(C(=N)N2CCCC2)ccc1-c1cc(CNC(=O)c2ccc(Cl)s2)on1` [Example 96, 5-Chloro-thiophene-2-carboxylic acid {3-[2-dimethylamino-4-(imino-pyrrolidin-1-yl-methyl)-phenyl]-isoxazol-5-ylmethyl}-amide], with at most 100 nM; and `CN(C)c1cc(C(=N)N2CCCCC2)ccc1-c1cc(CNC(=O)c2ccc(Cl)s2)on1` [Example 97, 5-Chloro-thiophene-2-carboxylic acid {3-[2-dimethylamino-4-(imino-piperidin-1-yl-methyl)-phenyl]-isoxazol-5-ylmethyl}-amide], with at most 100 nM.
`CN(C)C(=N)c1ccc(-c2cc(CNC(=O)c3ccc(Cl)s3)on2)c(N2CCOCC2)c1` [Example 98, 5-Chloro-thiophene-2-carboxylic acid {3-[4-(N,N-dimethyl-carbamimidoyl)-2-morpholin-4-yl-phenyl]-isoxazol-5-ylmethyl}-amide] registered a 50% inhibitory concentration (IC50) of at most 100 nM.
To `CN1CCN=C1c1ccc(-c2cc(CNC(=O)c3ccc(Cl)s3)on2)c(N2CCOCC2)c1` [Example 99, 5-Chloro-thiophene-2-carboxylic acid {3-[4-(1-methyl-4,5-dihydro-1H-imidazol-2-yl)-2-morpholin-4-yl-phenyl]-isoxazol-5-ylmethyl}-amide] belongs at most 100 nM; to `N=C(c1ccc(-c2cc(CNC(=O)c3ccc(Cl)s3)on2)c(N2CCOCC2)c1)N1CCCC1` [Example 100, 5-Chloro-thiophene-2-carboxylic acid {3-[4-(imino-pyrrolidin-1-yl-methyl)-2-morpholin-4-yl-phenyl]-isoxazol-5-ylmethyl}-amide], at most 100 nM.
For `N=C(c1ccc(-c2cc(CNC(=O)c3ccc(Cl)s3)on2)c(N2CCOCC2)c1)N1CCCCC1` [Example 101, 5-Chloro-thiophene-2-carboxylic acid {3-[4-(imino-piperidin-1-yl-methyl)-2-morpholin-4-yl-phenyl]-isoxazol-5-ylmethyl}-amide], the half-inhibitory concentration (IC50) was at most 100 nM.
In turn, `COc1cc(C(=N)N(C)C)ccc1C1=NOC(CNC(=O)c2ccc(Cl)s2)C1` (centres unmarked) [Example 102, 5-Chloro-thiophene-2-carboxylic acid {3-[4-(N,N-dimethyl-carbamimidoyl)-2-methoxy-phenyl]-4,5-dihydro-isoxazol-5-ylmethyl}-amide] registered an IC50 of at most 100 nM.
To `COc1cc(C2=NCCN2C)ccc1C1=NOC(CNC(=O)c2ccc(Cl)s2)C1` (centres unmarked) [Example 103, 5-Chloro-thiophene-2-carboxylic acid {3-[2-methoxy-4-(1-methyl-4,5-dihydro-1H-imidazol-2-yl)-phenyl]-4,5-dihydro-isoxazol-5-ylmethyl}-amide] belongs at most 100 nM; to `COc1cc(C(=N)N2CCCC2)ccc1C1=NOC(CNC(=O)c2ccc(Cl)s2)C1` (centres unmarked) [Example 104, 5-Chloro-thiophene-2-carboxylic acid {3-[4-(imino-pyrrolidin-1-yl-methyl)-2-methoxy-phenyl]-4,5-dihydro-isoxazol-5-ylmethyl}-amide], at most 100 nM.
Turning to `COc1cc(C(=N)N2CCCCC2)ccc1C1=NOC(CNC(=O)c2ccc(Cl)s2)C1` (centres unmarked) [Example 105, 5-Chloro-thiophene-2-carboxylic acid {3-[4-(imino-piperidin-1-yl-methyl)-2-methoxy-phenyl]-4,5-dihydro-isoxazol-5-ylmethyl}-amide], the IC50 is at most 100 nM.
Then `CCOc1cc(C(=N)N(C)C)ccc1C1=NOC(CNC(=O)c2ccc(Cl)s2)C1` (centres unmarked) [Example 106, 5-Chloro-thiophene-2-carboxylic acid {3-[4-(N,N-dimethyl-carbamimidoyl)-2-ethoxy-phenyl]-4,5-dihydro-isoxazol-5-ylmethyl}-amide], with at most 100 nM.
In turn, `CCOc1cc(C2=NCCN2C)ccc1C1=NOC(CNC(=O)c2ccc(Cl)s2)C1` (centres unmarked) [Example 107, 5-Chloro-thiophene-2-carboxylic acid {3-[2-ethoxy-4-(1-methyl-4,5-dihydro-1H-imidazol-2-yl)-phenyl]-4,5-dihydro-isoxazol-5-ylmethyl}-amide] had an IC50 of at most 100 nM.
Then `CCOc1cc(C(=N)N2CCCC2)ccc1C1=NOC(CNC(=O)c2ccc(Cl)s2)C1` (centres unmarked) [Example 108, 5-Chloro-thiophene-2-carboxylic acid {3-[2-ethoxy-4-(imino-pyrrolidin-1-yl-methyl)-phenyl]-4,5-dihydro-isoxazol-5-ylmethyl}-amide], with at most 100 nM; and `CC(C)Oc1cc(C(=N)N(C)C)ccc1C1=NOC(CNC(=O)c2ccc(Cl)s2)C1` (centres unmarked) [Example 109, 5-Chloro-thiophene-2-carboxylic acid {3-[4-(N,N-dimethyl-carbamimidoyl)-2-isopropoxy-phenyl]-4,5-dihydro-isoxazol-5-ylmethyl}-amide], with at most 100 nM.
Then `CC(C)Oc1cc(C2=NCCN2C)ccc1C1=NOC(CNC(=O)c2ccc(Cl)s2)C1` (centres unmarked) [Example 110, 5-Chloro-thiophene-2-carboxylic acid {3-[2-isopropoxy-4-(1-methyl-4,5-dihydro-1H-imidazol-2-yl)-phenyl]-4,5-dihydro-isoxazol-5-ylmethyl}-amide], with at most 100 nM.

(Values after patent US8377974B2 (Millennium Pharmaceuticals, Inc., priority 2004, dated 2013).)
